# Read-outs that look alike come from different tables or passages of the source.
# Biological target: T1, BCL6 (Homo sapiens, UniProt P41182)
# T1 construct: endogenous in cells; host or cells: T47D breast cancer epithelial cells
# Experiment: Immunofluorescence protocol for high content imaging of BCL6 (degradation) in T47D cells, 3 days compound treatment
# Type: cell-based
# Conditions: for Dmax: read-out: Mean Dmax (%)** category; for DC50: read-out: Mean DC50 (nM)* category
# How it was run: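 For degradation, compound series (3-fold, 11 points, top 0.1 or 1 μM final) were added to adherent T47D cultures for 3 days. BCL6 immunostaining used a rabbit antibody at 1:300 and an Alexa-488 secondary, with imaging at 10× magnification.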
# [1] = T47D cells, 3 days compound treatment
SMILES,Dmax (T47D),DC50,DC50 [1],Dmax [1]
"CNC(=O)COc1cc2cc(Nc3nc(N4CCN(C(C)(C)C5CCN(c6cccc7c6CN(C6CCC(=O)NC6=O)C7=O)CC5)CC4)ncc3Cl)ccc2n(C(C)C)c1=O (stereo not shown) [Compound 104, 2-{[6-({5-chloro-2-[4-(2-{1-[2-(2,6-dioxopiperidin-3-yl)-1-oxo-2,3-dihydro-1H-isoindol-4-yl]piperidin-4-yl}propan-2-yl)piperazin-1-yl]pyrimidin-4-yl}amino)-2-oxo-1-(propan-2-yl)-1,2-dihydroquinolin-3-yl]oxy}-N-methylacetamide]",,,< 10 nM,50 to 70%
"CNC(=O)COc1cc2cc(Nc3nc(N4CCC(O[C@H]5C[C@H](N6CC[C@H](c7ccc8c(c7F)CN(C7CCC(=O)NC7=O)C8=O)C(C)(C)C6)C5)CC4)ncc3Cl)ccc2n(C(C)C)c1=O (stereo partly drawn) [Compound 431, 2-({6-[(5-chloro-2-{4-[(1r,3r)-3-[(4S)-4-[2-(2,6-dioxopiperidin-3-yl)-4-fluoro-1-oxo-2,3-dihydro-1H-isoindol-5-yl]-3,3-dimethylpiperidin-1-yl]cyclobutoxy]piperidin-1-yl}pyrimidin-4-yl)amino]-2-oxo-1-(propan-2-yl)-1,2-dihydroquinolin-3-yl}oxy)-N-methylacetamide]",≥ 70%,< 10 nM,,
"CNC(=O)COc1cc2cc(Nc3nc(N4CCC(O[C@H]5C[C@H](N6CCC(c7ccc8c(c7F)CN(C7CCC(=O)NC7=O)C8=O)CC6)C5)CC4)ncc3Cl)ccc2n(C2CCCC2)c1=O (stereo partly shown) [Compound 191, 2-({6-[(5-chloro-2-{4-[(1r,3r)-3-{4-[2-(2,6-dioxopiperidin-3-yl)-4-fluoro-1-oxo-2,3-dihydro-1H-isoindol-5-yl]piperidin-1-yl}cyclobutoxy]piperidin-1-yl}pyrimidin-4-yl)amino]-1-cyclopentyl-2-oxo-1,2-dihydroquinolin-3-yl}oxy)-N-methylacetamide]",,,< 10 nM,≥ 70%
CNC(=O)COc1cc2c(F)c(Nc3nc(N4CCC(O[C@H]5C[C@H](N6CCC(c7ccc8c(c7F)CN(C7CCC(=O)NC7=O)C8=O)CC6)C5)CC4)ncc3Cl)ccc2n(C(C)C)c1=O (stereo partly shown) [Compound 173],,,< 10 nM,≥ 70%
"CNC(=O)COc1cc2cc(Nc3nc(N4CCC(O[C@H]5C[C@H](N6CCC7(CCN(c8ccc9c(c8)CN(C8CCC(=O)NC8=O)C9=O)CC7)CC6)C5)CC4)ncc3Cl)ccc2n(C(C)C)c1=O (stereo partly shown) [Compound 349, 2-({6-[(5-chloro-2-{4-[(1r,3r)-3-{9-[2-(2,6-dioxopiperidin-3-yl)-1-oxo-2,3-dihydro-1H-isoindol-5-yl]-3,9-diazaspiro [5.5]undecan-3-yl}cyclobutoxy]piperidin-1-yl}pyrimidin-4-yl)amino]-2-oxo-1-(propan-2-yl)-1,2-dihydroquinolin-3-yl}oxy)-N-methylacetamide]",≥ 70%,< 10 nM,,
"CNC(=O)COc1cc2cc(Nc3nc(N4CCN(CC5CCN(c6ccc7c(c6)CN(C6CCC(=O)NC6=O)C7=O)CC5)CC4)ncc3Cl)ccc2n(C)c1=O (stereo not shown) [Compound 67, 2-{[6-({5-chloro-2-[4-({1-[2-(2,6-dioxopiperidin-3-yl)-1-oxo-2,3-dihydro-1H-isoindol-5-yl]piperidin-4-yl}methyl)piperazin-1-yl]pyrimidin-4-yl}amino)-1-methyl-2-oxo-1,2-dihydroquinolin-3-yl]oxy}-N-methylacetamide]",,,< 10 nM,50 to 70%
"CNC(=O)COc1cc2cc(Nc3nc(N4CCC(C(C)(C)N5CCC6(CC5)CN(c5c(OC)ccc7c5CN(C5CCC(=O)NC5=O)C7=O)C6)CC4)ncc3Cl)ccc2n(C(C)C)c1=O (stereo not shown) [Compound 327, 2-{[6-({5-chloro-2-[4-(2-{2-[2-(2,6-dioxopiperidin-3-yl)-5-methoxy-1-oxo-2,3-dihydro-1H-isoindol-4-yl]-2,7-diazaspiro[3.5]nonan-7-yl}propan-2-yl)piperidin-1-yl]pyrimidin-4-yl}amino)-2-oxo-1-(propan-2-yl)-1,2-dihydroquinolin-3-yl]oxy}-N-methylacetamide]",≥ 70%,< 10 nM,,
"CNC(=O)COc1cc2cc(Nc3nc(N4CCC(O[C@H]5C[C@H](N6CCC7(CC6)CN(c6ccc8c(c6C)C(=O)N(C6CCC(=O)NC6=O)C8=O)C7)C5)CC4)ncc3Cl)ccc2n(C(C)C)c1=O (stereo partly shown) [Compound 414, 2-({6-[(5-chloro-2-{4-[(1r,3r)-3-{2-[2-(2,6-dioxopiperidin-3-yl)-4-methyl-1,3-dioxo-2,3-dihydro-1H-isoindol-5-yl]-2,7-diazaspiro[3.5]nonan-7-yl}cyclobutoxy]piperidin-1-yl}pyrimidin-4-yl)amino]-2-oxo-1-(propan-2-yl)-1,2-dihydroquinolin-3-yl}oxy)-N-methylacetamide]",≥ 70%,< 10 nM,,
"CNC(=O)COc1cc2cc(Nc3nc(N4CCC(O[C@H]5C[C@H](N6[C@@H](C)CN(c7ccc8c(c7)CN(C7CCC(=O)NC7=O)C8=O)C[C@@H]6C)C5)CC4)ncc3Cl)ccc2n(C(C)C)c1=O (stereo partly drawn) [Compound 254, 2-({6-[(5-chloro-2-{4-[(1r,3r)-3-[(2S,6S)-4-[2-(2,6-dioxopiperidin-3-yl)-1-oxo-2,3-dihydro-1H-isoindol-5-yl]-2,6-dimethylpiperazin-1-yl]cyclobutoxy]piperidin-1-yl}pyrimidin-4-yl)amino]-2-oxo-1-(propan-2-yl)-1,2-dihydroquinolin-3-yl}oxy)-N-methylacetamide]",≥ 70%,< 10 nM,,
"CNC(=O)COc1cc2cc(Nc3nc(N4CCC(O[C@H]5C[C@H](N6CCC(c7ccc8c(c7Cl)CN(C7CCC(=O)NC7=O)C8=O)CC6)C5)CC4)ncc3Cl)ccc2n(C(C)C)c1=O (stereo partly shown) [Compound 163, 2-({6-[(5-chloro-2-{4-[(1r,3r)-3-{4-[4-chloro-2-(2,6-dioxopiperidin-3-yl)-1-oxo-2,3-dihydro-1H-isoindol-5-yl]piperidin-1-yl}cyclobutoxy]piperidin-1-yl}pyrimidin-4-yl)amino]-2-oxo-1-(propan-2-yl)-1,2-dihydroquinolin-3-yl}oxy)-N-methylacetamide]",,,< 10 nM,≥ 70%

# Further lines, results first:
Dmax (T47D),DC50,DC50 [1],Dmax [1],SMILES
≥ 70%,< 10 nM,,,"CNC(=O)COc1cc2cc(Nc3nc(N4CCC(CN5CCC6(CC5)CC5(CN(c7cccc8c7C(=O)N(C7CCC(=O)NC7=O)C8=O)C5)C6)CC4)ncc3Cl)ccc2n(C(C)C)c1=O (stereo not shown) [Compound 374, 2-{[6-({5-chloro-2-[4-({2-[2-(2,6-dioxopiperidin-3-yl)-1,3-dioxo-2,3-dihydro-1H-isoindol-4-yl]-2,9-diazadispiro[3.1.5^6.1^4]dodecan-9-yl}methyl)piperidin-1-yl]pyrimidin-4-yl}amino)-2-oxo-1-(propan-2-yl)-1,2-dihydroquinolin-3-yl]oxy}-N-methylacetamide]"
,,< 10 nM,< 50%,"CNC(=O)COc1cc2cc(Nc3nc(N4CCC(CN5CCC6(CN(c7ccc8c(c7)C(=O)N(C7CCC(=O)NC7=O)C8=O)C6)C(F)(F)C5)CC4)ncc3Cl)ccc2n(CCOC)c1=O (stereo not shown) [Compound 126, 2-{[6-({5-chloro-2-[4-({2-[2-(2,6-dioxopiperidin-3-yl)-1,3-dioxo-2,3-dihydro-1H-isoindol-5-yl]-5,5-difluoro-2,7-diazaspiro[3.5]nonan-7-yl}methyl)piperidin-1-yl]pyrimidin-4-yl}amino)-1-(2-methoxyethyl)-2-oxo-1,2-dihydroquinolin-3-yl]oxy}-N-methylacetamide]"
50 to 70%,< 10 nM,,,"CNC(=O)COc1cc2cc(Nc3nc(N4CCC(CN5[C@@H](C)CC6(C[C@@H]5C)CN(c5ccc7c(c5)C(=O)N(C5CCC(=O)NC5=O)C7=O)C6)CC4)ncc3Cl)ccc2n(C(C)C)c1=O (stereo partly drawn) [Compound 255, 2-[(6-{[5-chloro-2-(4-{[(6S,8S)-2-[2-(2,6-dioxopiperidin-3-yl)-1,3-dioxo-2,3-dihydro-1H-isoindol-5-yl]-6,8-dimethyl-2,7-diazaspiro[3.5]nonan-7-yl]methyl}piperidin-1-yl)pyrimidin-4-yl]amino}-2-oxo-1-(propan-2-yl)-1,2-dihydroquinolin-3-yl)oxy]-N-methylacetamide]"
,,< 10 nM,50 to 70%,"CNC(=O)COc1cc2cc(Nc3nc(N4CCC(F)(CN5CC(N6CCC(c7ccc8c(c7)C(=O)N(C7CCC(=O)NC7=O)C8=O)CC6)C5)CC4)ncc3Cl)ccc2n(C(C)C)c1=O (stereo not shown) [Compound 97, 2-({6-[(5-chloro-2-{4-[(3-{4-[2-(2,6-dioxopiperidin-3-yl)-1,3-dioxo-2,3-dihydro-1H-isoindol-5-yl]piperidin-1-yl}azetidin-1-yl)methyl]-4-fluoropiperidin-1-yl}pyrimidin-4-yl)amino]-2-oxo-1-(propan-2-yl)-1,2-dihydroquinolin-3-yl}oxy)-N-methylacetamide]"
50 to 70%,< 10 nM,,,"CNC(=O)COc1cc2cc(Nc3nc(N4CCC(N(C)C5CCC6(CC5)CN(c5ccc7c(c5)C(=O)N(C5CCC(=O)NC5=O)C7=O)C6)CC4)ncc3Cl)ccc2n(C(C)C)c1=O (stereo not shown) [Compound 308, 2-{[6-({5-chloro-2-[4-({2-[2-(2,6-dioxopiperidin-3-yl)-1,3-dioxo-2,3-dihydro-1H-isoindol-5-yl]-2-azaspiro[3.5]nonan-7-yl} (methyl)amino)piperidin-1-yl]pyrimidin-4-yl}amino)-2-oxo-1-(propan-2-yl)-1,2-dihydroquinolin-3-yl]oxy}-N-methylacetamide]"
50 to 70%,< 10 nM,,,"CNC(=O)COc1cc2cc(Nc3nc(N4CCN(CC5CCC6(CC5)CN(c5ccc7c(c5)CN(C5CCC(=O)NC5=O)C7=O)C6)CC4)ncc3Cl)ccc2n(C(C)C)c1=O (stereo not shown) [Compound 305, 2-{[6-({5-chloro-2-[4-({2-[2-(2,6-dioxopiperidin-3-yl)-1-oxo-2,3-dihydro-1H-isoindol-5-yl]-2-azaspiro[3.5]nonan-7-yl}methyl)piperazin-1-yl]pyrimidin-4-yl}amino)-2-oxo-1-(propan-2-yl)-1,2-dihydroquinolin-3-yl]oxy}-N-methylacetamide]"
,,10 to 50 nM,≥ 70%,CNC(=O)COc1cc2cc(Nc3nc(N4CCC5(CCN(CC6CCN(c7cccc8c7C(=O)N(C7CCC(=O)NC7=O)C8=O)CC6)C5)C4)ncc3Cl)ccc2n(C(C)C)c1=O (stereo not shown) [Compound 11]

# From patent US11986532B2 (Arvinas Operations, Inc., priority 2021, dated 2024)
